# From patent US11306063B2, “Heterocyclic naphthoquinones derivatives for use in the treatment of cancers including Cushing disease” (Commissariat a l'Energie Atomique et aux Energies …, priority 2016, dated 2022)
# Read-outs that look alike come from different tables or passages of the source.
# Assays:
# [1] = target: T1, USP2^CD (purified catalytic domain of USP2) (Homo sapiens, UniProt O75604); assay: Inhibition of purified USP2^CD enzymatic activity (Ub-AMC or Ub-Rho substrate); format: biochemical; conditions: for inhibition at 0.01 µM: 0.01 μM compound; for inhibition at 0.05 µM: 0.05 μM compound; for inhibition at 0.1 µM: 0.1 μM compound; for inhibition at 0.5 µM: 0.5 μM compound; for inhibition at 1 µM: 1 μM compound; for inhibition at 5 µM: 5 μM compound; for inhibition at 10 µM: 10 μM compound; for inhibition at 25 µM: 25 μM compound; for inhibition at 50 µM: 50 μM compound; for IC50: read-out: IC50 USP2 CD
# T1 construct: The purified catalytic domain of USP2 (USP2^CD, in-house purified); His; made in house; host or cells: E. coli BL21 Gold
# T1 sequence (O75604 267-599 limits assumed): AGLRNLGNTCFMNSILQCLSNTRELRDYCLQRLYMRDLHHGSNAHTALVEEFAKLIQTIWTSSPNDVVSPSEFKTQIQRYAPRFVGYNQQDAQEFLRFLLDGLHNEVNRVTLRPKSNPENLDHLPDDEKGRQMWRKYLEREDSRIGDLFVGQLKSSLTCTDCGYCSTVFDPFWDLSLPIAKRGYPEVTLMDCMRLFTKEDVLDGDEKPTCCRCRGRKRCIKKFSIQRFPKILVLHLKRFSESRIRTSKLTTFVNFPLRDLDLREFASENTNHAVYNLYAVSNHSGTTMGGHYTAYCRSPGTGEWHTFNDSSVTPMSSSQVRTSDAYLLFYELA
# Protocol: (§1) USP2CD or USP8CD were expressed in E. coli BL21 Gold. Cells were grown in LB Miller to mid-log phase and induced by addition of 0.5 mM IPTG for USP2CD for 5 h at 20° C., while 1 mM IPTG was added for USP8CD for 3 h at 37° C. Then, cells were harvested and frozen at −80° C.
# For His-tagged USP2CD, cells were resuspended in buffer C (10 mM TRIS pH 8.0, 100 mM NaCl, 10 mM Imidazole) and lysed using a sonicator. The lysate was clarified by centrifugation and applied to Ni Sepharose6 Fast Flow resin (GE Healthcare). The resin was sequentially washed with buffer C, then with buffer C containing 50 mM Imidazole. Protein sample was eluted from the resin using buffer C containing 250 mM Imidazole. The eluted protein was buffer exchanged by gel-filtration on a Superdex 200 10/300 GL column (GE Healthcare) equilibrated in Buffer D (15 mM Bis-TRIS pH 6.0, 100 mM NaCl, 1 mM dithiothreitol (DTT)).
# (§2) Enzymatic assay was performed in a HEPES buffer (50 mM pH7.6 1 mM DTT, 2% glycerol, 0.5 mM EDTA) or in a Tris buffer (40 mM pH7.4 1 mM DTT, 5% glycerol, 0.05 mg/ml BSA) respectively, following manufacturer's instructions. Compounds were added to the reaction mixture just prior to the substrate. The enzymatic reaction kinetics was monitored through the apparition of fluorescence due to the hydrolysis of the peptidyl Ub-AMC or Ub-Rho bound over 20 or 30 minutes.
# (§3) Medium value out of duplicates is reported.
# [2] = target: T2, USP8^CD (purified catalytic domain of USP8) (Homo sapiens, UniProt P40818); assay: Inhibition of purified USP8^CD enzymatic activity (Ub-AMC or Ub-Rho substrate); format: biochemical; conditions: for inhibition at 0.01 µM: 0.01 μM compound; for inhibition at 0.05 µM: 0.05 μM compound; for inhibition at 0.1 µM: 0.1 μM compound; for inhibition at 0.5 µM: 0.5 μM compound; for inhibition at 1 µM: 1 μM compound; for inhibition at 5 µM: 5 μM compound; for inhibition at 10 µM: 10 μM compound; for inhibition at 25 µM: 25 μM compound; for inhibition at 50 µM: 50 μM compound; for IC50: read-out: IC50 USP8 CD
# T2 construct: the purified catalytic domain of USP8 (USP8^CD, in-house purified); made in house; host or cells: E. coli BL21 Gold
# T2 sequence (P40818 777-1109 limits assumed): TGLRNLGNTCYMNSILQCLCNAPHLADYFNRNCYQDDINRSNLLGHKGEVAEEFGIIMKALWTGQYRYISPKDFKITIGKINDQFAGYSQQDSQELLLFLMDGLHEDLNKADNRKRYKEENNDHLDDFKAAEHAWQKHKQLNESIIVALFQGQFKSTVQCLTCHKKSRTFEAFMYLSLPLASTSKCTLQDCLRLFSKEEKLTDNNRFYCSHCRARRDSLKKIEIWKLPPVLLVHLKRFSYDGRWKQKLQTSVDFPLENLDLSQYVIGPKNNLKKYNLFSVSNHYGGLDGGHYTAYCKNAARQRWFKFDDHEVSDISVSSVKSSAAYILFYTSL
# Protocol: as §1
# For His-tagged USP8CD, cells were resuspended in buffer A (50 mM TRIS pH 8.0, 500 mM NaCl, 2 mM Imidazole) and lysed using a sonicator. The lysate was clarified by centrifugation and applied to Ni Sepharose6 Fast Flow resin (GE Healthcare). The resin was sequentially washed first with buffer A containing 10 mM Imidazole then with buffer A containing 20 mM Imidazole, and finally with buffer A containing 50 mM Imidazole. Protein sample was eluted from the resin using buffer A containing 300 mM Imidazole. The eluted protein was buffer exchanged by gel-filtration on a Superdex 200 10/300 GL column (GE Healthcare) equilibrated in Buffer B (20 mM HEPES pH 7.5, 300 mM NaCl, 2 mM dithiothreitol (DTT)).
# as §2, §3
# [3] = system: MESSA cells; assay: Cytotoxicity assay (PrestoBlue cell viability), MESSA; format: cell-based; conditions: Homo sapiens, MES-SA; 48 hours treatment; concentration inducing 50% cell mortality
# Protocol: (§4) Messa, Messa DX5, HCT116, HEK-293, PC-3, LNCaP, HCC827 and H1975 cell lines are issued from the American Type Culture Collection (ATCC).
# (§5) Messa, Messa DX5 and HCT116 were maintained in McCoy's supplemented with 10% fetal bovine serum, and 1% penicillin/streptomycin. PC-3, LNCaP cells were maintained in RPMI medium supplemented with 10% fetal bovine serum, and 1% penicilin/streptomycin and in the case of Messa DX5: 500 nM Doxorubicin was added to maintain selection pressure. HEK293 were maintained in DMEM medium supplemented with 10% fetal bovine serum, and 1% penicillin/streptomycin. Cells were maintained at 37° C. with 5% CO2, 95% air, and humid atmosphere. In the case of hormonal dependent LNCaP cells, 2 μM DiHydroTestosterone (DHT) was added or not—depending on the type of biological assay—for the same incubation period as compounds.
# (§6) For cytotoxicity assays, cells were seeded in 96-well microplates 24 hours before the addition of increasing concentrations of each compound in the culture medium. Cell viability was analyzed 48 hours following addition of each compound through the monitoring of mitochondrial […] activity using PrestoBlue® Cell Viability Reagent (Invitrogen; #A-13261). Paclitaxel was used as a control which is cytotoxic on various cancerous cells although not on chemoresistant MESSA DX5 lineage.
# [4] = system: MESSA DX5 cells; assay: Cytotoxicity assay (PrestoBlue cell viability), MESSA DX5; format: cell-based, human; conditions: Homo sapiens, MES-SA/Dx5; 48 hours treatment; chemoresistant line
# Protocol: as §4, §5, §6
# [5] = system: HEK293 cells; assay: Cytotoxicity assay (PrestoBlue cell viability), HEK293; format: cell-based; conditions: Homo sapiens, 48 hours treatment
# Protocol: as §4, §5, §6
# [6] = system: PC-3 cells; assay: Cytotoxicity assay (PrestoBlue cell viability), PC-3; format: cell-based; conditions: Homo sapiens, 48 hours treatment
# Protocol: as §4, §5, §6
# [7] = system: LNCaP cells; assay: Cytotoxicity assay (PrestoBlue cell viability), LNCaP; format: cell-based; conditions: Homo sapiens, 48 hours treatment
# Protocol: as §4, §5, §6
# [8] = system: H1975 cells; assay: Cytotoxicity assay (PrestoBlue cell viability), H1975; format: cell-based, human; conditions: Homo sapiens, NCI-H1975, 48 h
# Protocol: as §4, §6
# [9] = Ub-AMC substrate at 1 μM, Table 2b
# [10] = Ub-Rhodamine substrate at 0.1 μM, Table 2c
SMILES,inhibition at 0.01 µM ([1]; Table 1c) [%],inhibition at 0.05 µM ([1]; Table 1c) [%],inhibition at 0.1 µM ([1]; Table 1c) [%],inhibition at 0.5 µM ([1]; Table 1c) [%],inhibition at 1 µM ([1]; Table 1b) [%],inhibition at 1 µM ([1]; Table 1c) [%],inhibition at 5 µM ([1]; Table 1c) [%],inhibition at 10 µM ([1]; Table 1c) [%],inhibition at 25 µM ([1]; Table 1b) [%],inhibition at 50 µM ([1]; Table 1b) [%],"IC50 [1, 9] [µM]",inhibition at 0.01 µM ([2]; Table 1d) [%],inhibition at 0.05 µM ([2]; Table 1d) [%],inhibition at 0.1 µM ([2]; Table 1d) [%],inhibition at 0.5 µM ([2]; Table 1d) [%],inhibition at 1 µM ([2]; Table 1b) [%],inhibition at 1 µM ([2]; Table 1d) [%],inhibition at 5 µM ([2]; Table 1b) [%],inhibition at 5 µM ([2]; Table 1d) [%],inhibition at 10 µM ([2]; Table 1d) [%],also measured
COc1ccc(S(=O)(=O)Cc2nc3c(nc2CS(=O)(=O)c2ccc(OC)c(OC)c2)C(=O)c2ccccc2C3=O)cc1OC [OVM18],-19,-3,19,-20,53,44,17,9,53,63,> 10,2,21,-8,63,100,83,103,77,71,"inhibition at 25 µM ([2]; Table 1b): 96%; inhibition at 50 µM ([2]; Table 1b): 101%; IC50 [2, 9]: 0.5 µM; EC50 [3]: 1.3 µM; EC50 [4]: 2.5 µM; EC50 [5]: 2.5 µM; EC50 [6]: 3 µM; EC50 [7]: 2.1 µM; EC50 [8]: > 3 µM"
CCS(=O)(=O)Cc1nc2c(nc1CS(=O)(=O)CC)C(=O)c1ccccc1C2=O [VIN6075],11,6,-26,2,51,31,51,57,99,100,5,-15,24,12,51,85,86,102,104,110,"inhibition at 5 µM ([1]; Table 1b): 75%; IC50 [1, 10]: 0.6 µM; inhibition at 25 µM ([2]; Table 1b): 104%; inhibition at 50 µM ([2]; Table 1b): 106%; IC50 [2, 9]: 0.5 µM; IC50 [2, 10]: 0.08 µM; EC50 [3]: 3 µM; EC50 [4]: > 3 µM; EC50 [5]: > 3 µM; EC50 [6]: 3 µM; EC50 [7]: 2.8 µM; EC50 [8]: > 3 µM"
